# Tests used:
# LPA3R = target: T1, LPA3R (Homo sapiens, UniProt Q9UBY5); experiment: LPA3R antagonist activity (Table 1, calcium flux FLIPR); type: cell-based
# T1 sequence (Q9UBY5 1-353): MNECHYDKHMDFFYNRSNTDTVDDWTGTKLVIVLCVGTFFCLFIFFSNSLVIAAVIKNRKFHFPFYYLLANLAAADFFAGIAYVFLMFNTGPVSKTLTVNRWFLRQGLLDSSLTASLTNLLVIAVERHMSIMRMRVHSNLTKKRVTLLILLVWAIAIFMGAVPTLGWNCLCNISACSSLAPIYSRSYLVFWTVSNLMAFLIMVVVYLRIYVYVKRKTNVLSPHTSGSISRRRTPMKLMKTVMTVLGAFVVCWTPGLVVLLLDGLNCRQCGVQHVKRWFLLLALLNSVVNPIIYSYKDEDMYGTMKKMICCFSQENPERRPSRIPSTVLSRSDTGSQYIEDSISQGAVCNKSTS
# Procedure: (§1) Calcium Flux Assay Using Fluorometric Imaging Plate Reader (FLIPR)
# (§2) After incubation, both the cell and “assay” plates were brought to the FLIPR and 20 μL of the diluted compounds were transferred to the cell plates by the FLIPR. Compound addition was monitored by FLIPR to detect any agonist activity of the compounds. Plates were then incubated for 30 minutes at room temperature protected from light. After the incubation, plates were returned to the FLIPR and 20 μL of 4.5× concentrated agonist was added to the cell plates. During the assay, fluorescence readings were taken simultaneously from all 384 wells of the cell plate every 1.5 seconds. Five readings were taken to establish a stable baseline, then 20 μL of sample was rapidly (30 μL/sec) and simultaneously added to each well of the cell plate. The fluorescence was continuously monitored before, during and after sample addition for a total elapsed time of 100 seconds. Responses (increase in peak fluorescence) in each well following agonist addition was determined. The initial fluorescence reading from each well, prior to ligand stimulation, was used as zero baseline value for the data from that well. The responses were expressed as % inhibition of the buffer control.
# [1] = target: human recombinant LPA1 Lysophospholipid receptor (Homo sapiens, UniProt Q92633); experiment: Calcium flux assay using FLIPR, LPA1R antagonist activity; type: cell-based; details: for IC50: ChemiScreen calcium-optimized stable cell line, FLIPR calcium flux, antagonist mode
# Chain of human recombinant LPA1 Lysophospholipid receptor (Q92633 whole entry): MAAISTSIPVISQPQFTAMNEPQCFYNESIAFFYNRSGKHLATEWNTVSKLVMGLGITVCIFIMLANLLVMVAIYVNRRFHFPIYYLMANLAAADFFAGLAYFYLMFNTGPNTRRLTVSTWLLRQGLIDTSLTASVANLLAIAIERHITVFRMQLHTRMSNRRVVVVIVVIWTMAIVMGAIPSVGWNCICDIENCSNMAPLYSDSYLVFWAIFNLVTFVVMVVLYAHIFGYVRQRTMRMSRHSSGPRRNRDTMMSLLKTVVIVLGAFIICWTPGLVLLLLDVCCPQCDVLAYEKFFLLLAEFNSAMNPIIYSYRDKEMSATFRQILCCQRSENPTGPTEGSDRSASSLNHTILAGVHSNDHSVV
# Procedure: as §1
# Cell Culture Conditions: The ChemiScreen Calcium-optimized stable cell line containing the human recombinant LPA1 Lysophospholipid receptor was purchased from Chemicon International, Inc./Millipore. The cells were cultured in DMEM-high glucose supplemented with 10% fetal bovine serum, 2 mM glutamine, 100 U/mL penicillin/100 μg/mL streptomycin, 1× non-essential amino acids, 10 mM HEPES and 0.25 mg/mL Geneticin. Cells were harvested with trypsin-EDTA and counted using ViaCount reagent. The cell suspension volume was adjusted to 2.0×10^5 cells/mL with complete growth media. Aliquots of 50 μL were dispensed into 384 well black/clear tissue culture treated plates (BD) and the microplates were placed in a 37° C. incubator overnight. The following day plates were used in the assay.
# Dye Loading and Assay: Loading Buffer (FLIPR Calcium-4, Molecular Devices) was prepared by dissolving the contents of one bottle into 100 mL Hank's Balanced Salt Solution containing 20 mM HEPES and 2.5 mM probenecid. Plates were loaded onto Biotek plate washer and growth media was removed and replaced with 20 µL of Hank's Balanced Salt Solution containing 20 mM HEPES and 2.5 mM probenecid, followed by 25 μL of Loading Buffer. The plates were then incubated for 30 minutes at 37° C.
# During the incubation, test compounds were prepared by adding 90 μL of HBSS/20 mM HEPES/0.1% BSA buffer to 2 μL of serially diluted compounds. To prepare serial dilutions, 10 mM stocks of compounds were prepared in 100% DMSO. The compound dilution plate was set up as follows: well #1 received 29 μL of stock compound and 31 μL DMSO; wells 2-10 received 40 μL of DMSO; mixed and transferred 20 μL of solution from well #1 into well #2; continued with 1:3 serial dilutions out 10 steps; transferred 2 μL of diluted compound into duplicate wells of 384 well “assay plate” and then added the 90 μL of buffer.
# as §2
IC50 (LPA3R) [nM],inhibition at 10 µM ([1]; @ 10 μM) [%],IC50 [1] [nM],inhibition at 30 µM ([1]; @ 30 μM) [%],SMILES
> 30000,82.8,580,,"Cn1ncc(-c2ccc(-c3ccc(C4(C(=O)O)CC4)cc3)cc2)c1NC(=O)NCc1ccccc1 [Example 24, 1-{4′-[5-(3-Benzyl-ureido)-1-methyl-1H-pyrazol-4-yl]-biphenyl-4-yl}-cyclopropanecarboxylic acid]"
> 30000,,880,85.5,"C[C@@H](CC(=O)Nc1c(-c2ccc(-c3ccc(C4(C(=O)O)CC4)cc3)cc2)cnn1C)c1ccccc1 [Example 25, 1-{4′-[1-Methyl-5-((S)-3-phenyl-butyrylamino)-1H-pyrazol-4-yl]-biphenyl-4-yl}-cyclopropanecarboxylic acid]"

# Reference: patent US20150259295A1, “SUBSTITUTED PYRAZOLE COMPOUNDS AS LPAR ANTAGONISTS” (Hoffmann-La Roche Inc., priority 2012, published 2015)
